# Laboratory results: patent US8455515B2, “Substituted 4-phenyltetrahydroisoquinolines, process for their preparation, pharmaceutical compositions and therapeutic use” (Sanofi, priority 2005, dated 2013)
# Counter-ions that a name gives are not always drawn.
# How the values were obtained:
# [1] = test system: imidazoline receptor; details: cited from earlier work
# [2] = test system: adrenergic alpha-2 receptor; details: cited from earlier work
# [3] = test system: hippocampus sections; assay: long-term experiments on hippocampus sections (in vitro), weak tetanus early LTP in CA 1; parameters: species or system rats; details: rat hippocampus sections, 10 μM
# [4] = biological target: T1, NHE (Homo sapiens, UniProt P48764); assay: recovery of intracellular pH in LAP1 cells expressing NHE (FLIPR, BCECF); assay type: cell-based; details: LAP1 cells stably expressing NHE, pH recovery after acidification
# T1 sequence (P48764 26-834): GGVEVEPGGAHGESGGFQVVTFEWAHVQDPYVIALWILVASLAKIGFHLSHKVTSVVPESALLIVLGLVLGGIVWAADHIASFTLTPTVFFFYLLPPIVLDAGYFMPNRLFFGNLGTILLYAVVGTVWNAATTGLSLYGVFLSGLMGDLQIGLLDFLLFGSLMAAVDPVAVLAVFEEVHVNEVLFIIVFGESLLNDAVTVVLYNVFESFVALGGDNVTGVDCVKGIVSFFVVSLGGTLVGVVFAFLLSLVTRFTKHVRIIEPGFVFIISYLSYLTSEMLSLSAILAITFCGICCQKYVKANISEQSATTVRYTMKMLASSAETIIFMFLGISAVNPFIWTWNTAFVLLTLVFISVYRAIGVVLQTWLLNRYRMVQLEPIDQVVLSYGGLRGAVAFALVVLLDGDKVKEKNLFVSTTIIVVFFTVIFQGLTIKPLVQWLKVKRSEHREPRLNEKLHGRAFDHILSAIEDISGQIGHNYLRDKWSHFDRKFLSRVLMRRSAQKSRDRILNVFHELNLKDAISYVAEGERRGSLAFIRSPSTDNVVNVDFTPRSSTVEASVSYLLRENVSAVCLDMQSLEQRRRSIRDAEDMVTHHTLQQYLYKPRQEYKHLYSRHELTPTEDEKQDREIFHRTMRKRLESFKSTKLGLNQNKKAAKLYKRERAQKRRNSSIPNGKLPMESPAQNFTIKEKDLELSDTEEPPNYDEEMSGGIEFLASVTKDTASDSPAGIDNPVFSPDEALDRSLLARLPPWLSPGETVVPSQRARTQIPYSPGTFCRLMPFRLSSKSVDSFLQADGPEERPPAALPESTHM
# Experimental: NHE and NHE5 Test Description:
# In this test, the recovery in the intracellular pH (pHi) of LAP1 cells, which stably express the different subtypes of the sodium-proton exchanger (NHE), after an acidification was determined. This recovery sets in even under bicarbonate-free conditions in the case of functioning NHE. To this end, the pHi was determined with the pH-sensitive fluorescent dye BCECF (Molecular Probes, Eugene, Oreg., USA; the precursor BCECF-AM is used). The cells were first incubated with BCECF (5 μM BCECF-AM) in NH4Cl buffer (NH4Cl buffer: 115 mM cholineCl, 20 mM NH4Cl, 5 mM KCl, 1 mM CaCl2, 1 mM MgCl2, 20 mM Hepes, 5 mM glucose; a pH of 7.4 is established with 1 M KOH). […] The pH recovery was started by the addition of 90 μl of Na^+-containing buffer (133.8 mM NaCl, 4.7 mM KCl, 1.25 mM CaCl2, 1.25 mM MgCl2, 0.97 mM Na2HPO4, 0.23 mM NaH2PO4, 10 mM Hepes, 5 mM glucose; a pH of 7.4 is established with 1 M NaOH) in the analytical instrument (FLIPR, “Fluorometric Imaging Plate Reader”, Molecular Devices, Sunnyvale, Calif., USA). The BCECF fluorescence was determined at an excitation wavelength of 498 nm and the FLIPR emission filter 1 (band gap from 510 to 570 nm). The subsequent changes in fluorescence were registered for NHE and NHE5 for two minutes as a measure of the pH recovery. […]
# [5] = biological target: T2, NHE-5 (Homo sapiens, UniProt Q14940); assay: inhibitory action on NHE subtypes: NHE-5; details: therapeutically utilizable concentration range
# T2 sequence (Q14940 1-896): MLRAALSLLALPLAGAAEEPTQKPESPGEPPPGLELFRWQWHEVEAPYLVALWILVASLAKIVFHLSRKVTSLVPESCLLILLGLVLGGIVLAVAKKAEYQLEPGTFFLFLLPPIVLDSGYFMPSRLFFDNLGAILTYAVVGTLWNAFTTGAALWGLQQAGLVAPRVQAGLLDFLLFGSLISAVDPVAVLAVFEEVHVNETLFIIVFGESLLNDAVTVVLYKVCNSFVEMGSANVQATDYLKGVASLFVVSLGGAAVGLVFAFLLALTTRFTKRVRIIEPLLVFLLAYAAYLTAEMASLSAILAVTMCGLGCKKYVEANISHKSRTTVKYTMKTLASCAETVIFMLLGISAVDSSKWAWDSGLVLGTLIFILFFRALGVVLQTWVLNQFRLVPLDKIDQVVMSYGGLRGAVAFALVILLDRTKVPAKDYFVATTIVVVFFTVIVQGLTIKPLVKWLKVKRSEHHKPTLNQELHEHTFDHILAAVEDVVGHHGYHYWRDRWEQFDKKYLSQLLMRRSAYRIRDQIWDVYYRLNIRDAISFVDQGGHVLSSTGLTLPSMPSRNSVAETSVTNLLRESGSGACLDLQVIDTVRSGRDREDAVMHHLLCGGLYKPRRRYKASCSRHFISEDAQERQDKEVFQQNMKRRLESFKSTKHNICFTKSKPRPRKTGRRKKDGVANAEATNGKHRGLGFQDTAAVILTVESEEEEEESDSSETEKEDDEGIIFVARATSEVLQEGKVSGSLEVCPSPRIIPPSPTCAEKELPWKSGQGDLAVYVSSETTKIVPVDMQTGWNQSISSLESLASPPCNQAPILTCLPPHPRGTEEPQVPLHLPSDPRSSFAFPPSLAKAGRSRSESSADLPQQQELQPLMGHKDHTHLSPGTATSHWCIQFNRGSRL
# [6] = biological target: T1, NHE; assay: inhibitory action on NHE subtypes: NHE; details: therapeutically utilizable concentration range
# [7] = biological target: T3, NHE-2 (Homo sapiens, UniProt Q9UBY0); assay: inhibitory action on NHE subtypes: NHE-2; details: therapeutically utilizable concentration range
# T3 sequence (Q9UBY0 1-812): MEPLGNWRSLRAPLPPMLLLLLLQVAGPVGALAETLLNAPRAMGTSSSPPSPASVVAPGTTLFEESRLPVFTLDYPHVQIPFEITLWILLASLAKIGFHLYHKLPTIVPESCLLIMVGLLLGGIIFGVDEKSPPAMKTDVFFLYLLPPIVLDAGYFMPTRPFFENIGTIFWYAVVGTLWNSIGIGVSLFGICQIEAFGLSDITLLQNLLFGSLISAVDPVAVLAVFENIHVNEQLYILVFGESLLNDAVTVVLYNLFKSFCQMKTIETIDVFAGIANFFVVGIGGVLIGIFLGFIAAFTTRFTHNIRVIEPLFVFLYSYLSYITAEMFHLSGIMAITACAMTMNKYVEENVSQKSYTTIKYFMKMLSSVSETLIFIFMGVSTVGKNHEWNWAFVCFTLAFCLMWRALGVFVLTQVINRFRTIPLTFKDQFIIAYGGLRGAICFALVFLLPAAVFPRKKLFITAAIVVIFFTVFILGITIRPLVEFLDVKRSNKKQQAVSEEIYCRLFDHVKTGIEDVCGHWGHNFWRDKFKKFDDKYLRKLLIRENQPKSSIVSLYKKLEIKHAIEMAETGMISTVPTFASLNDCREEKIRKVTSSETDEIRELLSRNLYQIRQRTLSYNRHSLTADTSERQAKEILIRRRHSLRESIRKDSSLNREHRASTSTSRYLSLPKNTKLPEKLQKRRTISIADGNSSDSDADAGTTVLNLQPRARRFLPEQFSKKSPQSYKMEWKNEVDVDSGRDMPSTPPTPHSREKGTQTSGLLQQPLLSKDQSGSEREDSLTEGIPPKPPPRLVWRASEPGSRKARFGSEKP
# [8] = biological target: NHE-1 (Homo sapiens, UniProt P19634); assay: inhibitory action on NHE subtypes: NHE-1; details: therapeutically utilizable concentration range
# Chain of NHE-1 (P19634 whole entry, species assumed): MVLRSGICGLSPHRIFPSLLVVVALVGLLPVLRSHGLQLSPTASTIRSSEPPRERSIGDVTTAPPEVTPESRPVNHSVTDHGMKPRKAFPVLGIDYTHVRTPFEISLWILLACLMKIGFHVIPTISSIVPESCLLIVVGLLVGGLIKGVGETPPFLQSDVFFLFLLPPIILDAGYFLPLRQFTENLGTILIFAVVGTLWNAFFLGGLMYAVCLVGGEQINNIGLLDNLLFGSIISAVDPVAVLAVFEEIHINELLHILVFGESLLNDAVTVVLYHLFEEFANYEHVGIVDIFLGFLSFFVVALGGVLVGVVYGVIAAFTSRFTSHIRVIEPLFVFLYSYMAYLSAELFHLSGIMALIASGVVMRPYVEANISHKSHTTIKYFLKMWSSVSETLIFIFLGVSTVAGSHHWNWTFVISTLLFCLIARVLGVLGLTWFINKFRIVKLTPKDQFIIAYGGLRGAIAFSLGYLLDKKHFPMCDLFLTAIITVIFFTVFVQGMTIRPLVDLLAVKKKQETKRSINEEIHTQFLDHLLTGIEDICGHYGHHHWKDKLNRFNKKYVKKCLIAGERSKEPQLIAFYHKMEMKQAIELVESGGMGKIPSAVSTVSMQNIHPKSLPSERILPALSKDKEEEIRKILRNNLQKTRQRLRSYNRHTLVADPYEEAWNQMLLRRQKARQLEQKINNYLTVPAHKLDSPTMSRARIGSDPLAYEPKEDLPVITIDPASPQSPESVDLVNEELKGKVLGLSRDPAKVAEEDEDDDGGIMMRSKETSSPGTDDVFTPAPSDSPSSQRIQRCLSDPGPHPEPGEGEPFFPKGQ
smiles,measurement,setting,value
"CN1Cc2c(Cl)cc(Cl)cc2C(c2ccc(S(=O)(=O)N=C(N)N)cc2)C1 (stereo not shown) (as salt: hydrochloride) [Example 1, N-Diaminomethylene-4-(6,8-dichloro-2-methyl-1,2,3,4-tetrahydro-isoquinolin-4-yl)benzenesulfonamide, dihydrochloride]",melting point,,140 °C (dec.)
Clc1cccc(Cl)c1N=C1NCCN1 [Clonidine],affinity for the imidazoline receptor,[1],high affinity
same,affinity for the adrenergic alpha-2 receptor,[2],high affinity
"CN1Cc2c(Cl)cc(Cl)cc2C(c2ccc(S(=O)(=O)N=C(N)N)cc2)C1 (stereo not shown) [Example 1, N-Diaminomethylene-4-(6,8-dichloro-2-methyl-1,2,3,4-tetrahydro-isoquinolin-4-yl)benzenesulfonamide, dihydrochloride]",intrinsic effect on synaptic transmission,[3]; before tetanus,no intrinsic effect
same,potentiation of the EPSP 80 min after the stimulus,"[3]; weak tetanus, 80 min after stimulus (control 113%)",137 % of the baseline
same,IC50,[4],0.035 µM
Cc1csc(Cl)c1NC1=NCCN1 [tiamenidine],inhibitory action on NHE-5,[5],no relevant inhibitory actions
same,inhibitory action on NHE,[6],no relevant inhibitory actions
same,inhibitory action on NHE-2,[7],no relevant inhibitory actions
same,inhibitory action on NHE-1,[8],no relevant inhibitory actions
